Results on 3 compounds are retold here after patent US20060004037A1, “Novel tricyclic compounds and related methods of treatment” (TransForm Pharmaceuticals, Inc., priority 2004, published 2006).

Each structure is given as a SMILES string. In brackets after ≈: the same amount, converted by molar mass. Structures can show the parent of a compound that is named as a salt.

One data set in a line: Caco-2 permeability. It counts as in vitro ADME. The conditions noted are these: human, Caco-2, free base form; for efflux ratio: read-out: B-A/A-B ratio.
Another data set deals with Caco-2. Description: Caco-2 permeability. The conditions noted are these: free base form. It counts as in vitro ADME.
The next data set can be described thus: Hygroscopicity (VTI). It counts as physicochemical. The conditions noted are these: free base form.
A short description of data set [1]: Solubility in various solvents/solubilizing mixtures. It counts as physicochemical. The source says: The solubility of LSN 487355 in a variety of vehicles is illustrated in Table III.
The nature of a further data set: pKa. It counts as physicochemical. To be noted: free base form.
The next data set is described as follows: Dynamic vapor sorption. It counts as physicochemical.
Data set [2] in a line: Single excipient solubility screen. It counts as physicochemical. The source says: A single excipient screen was completed in an attempt to find an appropriate excipient for a liquid formulation of LSN 487355. […]

As a reminder, the Papp is a coefficient for how fast a substance crosses the barrier. The low end stands for poor permeation, the high end for ready permeation. As for `Cc1onc2c1c(=O)n([C@H]1CCC[C@@H](NC(=O)[C@@H](O)c3ccc(F)nc3)C1)c1cccc(Cl)c21` [LSN 509207], in the data set “Caco-2 permeability”, the apparent permeability (Papp) is 7.4 ×10⁻⁶ cm/s and the efflux ratio worked out at 2.7. The Permeability class entry in the data set on Caco-2 is reported as “Borderline high”. The “Hygroscopicity (VTI)” value in the data set “Hygroscopicity (VTI)” was “Non-hygroscopic”.
As usually defined, the solubility is how much of the substance goes into solution per volume. The pKa is the negative logarithm of the acid dissociation constant. Turning to `Cc1onc2c1c(=O)n([C@H]1CCC[C@@H](CNC(=O)c3ccc(F)nc3)C1)c1cccc(Cl)c21` [LSN 487355], the solubility in data set [1] (4% DMSO in deionized water, kinetic from dmso stock, 4% DMSO, compound dissolved in solvent first, then deionized water added) is 2 µg/mL (≈ 0.00427 mM); in data set [1] (5% N-methyl-2-pyrrolidone in deionized water, aqueous with cosolvent or surfactant or cyclodextrin, kinetic from dmso stock, 5% N-methyl-2-pyrrolidone, compound dissolved in solvent first, then deionized water added), 4 µg/mL (≈ 0.00853 mM); in data set [1] (10% DMSO in deionized water, aqueous with cosolvent or surfactant or cyclodextrin, kinetic from dmso stock, 10% DMSO, compound dissolved in solvent first, then deionized water added), 4 µg/mL (≈ 0.00853 mM); in data set [1] (10% N-methyl-2-pyrrolidone in deionized water, aqueous with cosolvent or surfactant or cyclodextrin, kinetic from dmso stock, 10% N-methyl-2-pyrrolidone, compound dissolved in solvent first, then deionized water added), 30 µg/mL (≈ 0.064 mM); in data set [1] (Capmul PG8, oil or lipid), 12000 to 15000 µg/mL (≈ 25.6 to 32 mM); in data set [1] (DMA, organic solvent or mixture), 208000 to 416000 µg/mL (≈ 444 to 887 mM). Besides, the solubility in data set [1] (Ethanol, organic solvent or mixture) was 1400 µg/mL (≈ 2.99 mM); in data set [1] (Ethyl Oleate, oil or lipid), below 2000 µg/mL; in data set [1] (Ethyl acetate, organic solvent or mixture), 3 µg/mL (≈ 0.0064 mM); in data set [1] (Glycofurol, organic solvent or mixture) it was above 2000 µg/mL; in data set [1] (Labrafac Hydro WL 219, oil or lipid) it was above 2000 µg/mL; in data set [1] (Labrafac Lipophile WL 1349, oil or lipid), below 2000 µg/mL. The solubility is below 2000 µg/mL in data set [1] (Labrafil M1944CS, oil or lipid); below 2000 µg/mL in data set [1] (Labrafil M2125CS, oil or lipid); 4000 to 5000 µg/mL (≈ 8.53 to 10.7 mM) in data set [1] (Labrasol, oil or lipid); above 563000 µg/mL in data set [1] (NMP, organic solvent or mixture); below 2000 µg/mL in data set [1] (Olive oil, oil or lipid); above 2000 µg/mL in data set [1] (PEG 300, organic solvent or mixture). Besides, the solubility is above 2000 µg/mL in data set [1] (Phosphal 50 PG, oil or lipid); above 2000 µg/mL in data set [1] (Phosphal 53 MCT, oil or lipid); below 2000 µg/mL in data set [1] (Propylene Glycol, organic solvent or mixture); below 2000 µg/mL in data set [1] (Safflower oil, oil or lipid); below 2000 µg/mL in data set [1] (Soybean oil, oil or lipid); at least 51000 µg/mL in data set [1] (organic solvent or mixture, DMSO, measured visually at about 50 mg/mL, all compound dissolved). Besides, in data set [1] (organic solvent or mixture, N-methyl-2-pyrrolidone, measured visually at about 50 mg/mL, all compound dissolved), the solubility is at least 52000 µg/mL. The Papp in the data set “Caco-2 permeability” was found to be 7.9 ×10⁻⁶ cm/s. Also, the efflux ratio in “Caco-2 permeability” stood at 2.3. Moreover, the Permeability class result with Caco-2 is “Borderline high”. Further, the pKa in the data set “pKa” was determined as 3.77. For the same compound, the “Hygroscopicity (VTI)” value in the data set “Hygroscopicity (VTI)” is “Non-hygroscopic”.
As to `Cc1onc2c1c(=O)n([C@H]1CCC[C@@H](CNC(=O)c3ccc(F)nc3)C1)c1cccc(Cl)c21` [LSN 487355 phosphate salt], in the data set “Dynamic vapor sorption” (dynamic vapor sorption), the Moisture sorption isotherm entry is recorded as “significant moisture sorption isotherm” and the “Relative humidity at which deliquescence begins” value is 80-90 % RH. For the same compound, the “Crystallinity in dynamic vapor sorption” value in the data set “Dynamic vapor sorption” (equilibrated under flowing nitrogen (0% RH)) is listed as “loss of crystallinity”. In addition, the solubility in data set [2] (oil or lipid, excipient labrasol (FIG. 13)) was at least 20000 µg/mL. Moreover, the solubility in data set [2] (organic solvent or mixture, excipient PEG-600 (FIG. 13)) was at least 20000 µg/mL.
